Numbers after ± are expanded uncertainties.

Data set [1] in a line: molar enthalpy of transition or fusion. As to conditions: Crystal, DSC.
For data set [2] the following is noted: Crystal.
The nature of data set [3]: molar heat capacity at constant pressure. As to conditions: 445.51 K; 101.33 kPa; Crystal; Small sample (50 mg) DSC.

In the case of `Cc1nc2ccccc2[nH]1` [2-methylbenzimidazole], the “molar enthalpy of transition or fusion” value in data set [1] (383.93 K) amounted to 0.586 kJ/mol; in data set [1] (451.43 K), 20.5 kJ/mol. In addition, the Normal melting temperature in data set [2] (DTA) is 178.28 °C.

As to `CC(C)(C)O` [2-methylpropan-2-ol], the Normal melting temperature in data set [2] (visual observation) turned out to be 24.84 ± 0.39 °C.

Take `c1ccc2[nH]cnc2c1` [benzimidazole]: the “molar heat capacity at constant pressure” value in data set [3] is given as 49.09 J/K/mol. Besides, the “molar enthalpy of transition or fusion” value in data set [1] (384.43 K) was 0.71 kJ/mol; in data set [1] (445.51 K), 20.5 kJ/mol. For the same compound, the Normal melting temperature in data set [2] (DTA) worked out at 172.36 °C.

For the origin of these results see the NIST ThermoML archive (doi:10.1021/je020228x).
